Reference: ChEMBL document CHEMBL5518235, “Identification of Novel Series of Potent and Selective Relaxin Family Peptide Receptor 1 (RXFP1) Agonists” (J Med Chem, 2024)
Active and inactive are the calls of the source. No cut-off for these calls is given here.

What was measured:
[1] = molecular target: T1, Relaxin receptor 1 (Homo sapiens) (UniProt Q9HBX9); test: (§1) Agonist activity at human RXFP1 expressed in T-Rex-CHO-K1 cells assessed as stimulation of cAMP production incubated for 45 mins by HTRF assay; assay type: functional, cell-based
T1 sequence (whole entry): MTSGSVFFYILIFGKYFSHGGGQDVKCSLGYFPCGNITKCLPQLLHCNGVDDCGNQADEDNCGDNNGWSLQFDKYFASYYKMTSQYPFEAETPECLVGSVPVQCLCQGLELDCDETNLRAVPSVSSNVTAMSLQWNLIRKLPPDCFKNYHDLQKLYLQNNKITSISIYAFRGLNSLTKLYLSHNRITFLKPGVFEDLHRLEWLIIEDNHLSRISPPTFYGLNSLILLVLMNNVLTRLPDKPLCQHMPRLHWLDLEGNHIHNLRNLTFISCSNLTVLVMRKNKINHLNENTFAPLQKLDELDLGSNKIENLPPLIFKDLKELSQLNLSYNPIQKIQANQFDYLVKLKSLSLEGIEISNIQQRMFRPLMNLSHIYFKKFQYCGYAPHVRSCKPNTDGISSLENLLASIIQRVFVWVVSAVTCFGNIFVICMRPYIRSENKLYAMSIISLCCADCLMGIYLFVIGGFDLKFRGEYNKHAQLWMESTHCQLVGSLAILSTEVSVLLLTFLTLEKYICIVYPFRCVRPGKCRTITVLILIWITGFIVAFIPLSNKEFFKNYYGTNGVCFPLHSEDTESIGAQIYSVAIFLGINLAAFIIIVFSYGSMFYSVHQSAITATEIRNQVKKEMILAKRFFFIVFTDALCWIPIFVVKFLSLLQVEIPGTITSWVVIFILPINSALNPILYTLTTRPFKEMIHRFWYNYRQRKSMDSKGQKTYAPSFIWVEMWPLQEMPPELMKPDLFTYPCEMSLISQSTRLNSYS

[2] = Lipophilicity, logD of the compound in 1-octanol and phosphate buffer at pH 7.4 incubated for 3 hrs by shake flask method based LC/MS/MS analysis; assay type: physicochemical; settings: for logD at 3 h: 1-octanol/phosphate buffer, pH 7.4
[3] = Metabolic stability in human liver microsomes assessed as intrinsic clearance at 1 uM incubated for 30 mins in presence of NADPH by LC-MS/MS analysis; assay type: ADME, Microsome; settings: for microsomal CLint at 1 µM: liver microsomes, read-out: CLH
[4] = Metabolic stability in human liver microsomes assessed as unbound intrinsic clearance at 1 uM incubated for 30 mins in presence of NADPH by LC-MS/MS analysis; assay type: ADME, Microsome; settings: 0.5 h
[5] = Metabolic stability in cryopreserved human hepatocytes assessed as intrinsic clearance measured per 10^6 cells at 1 uM after 120 mins by LC-MS/MS analysis; assay type: ADME, cell-based, Hepatocyte; settings: cryopreserved hepatocytes, read-out: CLH
[6] = Metabolic stability in cryopreserved human hepatocytes assessed as unbound intrinsic clearance measured per 10^6 cells at 1 uM measured after 120 mins by LC-MS/MS analysis; assay type: ADME, cell-based, Hepatocyte; settings: 2 h
Relaxin receptor 1 = molecular target: T2, Relaxin receptor 1 (Homo sapiens, UniProt Q9HBX9); test: as §1; assay type: functional, cell-based
T2 sequence (Q9HBX9 whole entry): T1 sequence (whole entry)

[7] = molecular target: T1, Relaxin receptor 1 (Homo sapiens); test: Agonist activity at human RXFP1 expressed in T-Rex-CHO-K1 cells assessed as stimulation of cAMP production by measuring maximal efficacy at 50 uM incubated for 45 mins by HTRF assay relative to control; assay type: functional, cell-based

Row | SMILES | Activity [1] | logD at 3 h [2] | microsomal CLint at 1 µM [3] | CL free [4] | hepatocyte CLint at 1 µM [5] | CL free [6] | EC50 (Relaxin receptor 1) | Emax ([7]; filed as agonist) | logD ([2]; octanol/water, pH 7.4, 3 h, 3 h) | CLH ([3]; microsomes, 0.5 h, 1 µM) | Emax [7]
1 | COc1cc(F)c(-c2ccc(C(=O)O)cc2)cc1C(=O)N[C@@H]1[C@H](C(=O)Nc2cccc(S(=O)(=O)C(F)(F)F)c2)[C@H]2C=C[C@@H]1C2 | inactive | 3.8 | 9.9 µL/min/mg | 150 µL/min/mg | 9.2 µL/min/1e6 cells | 484 µL/min |  |  |  |  | 
2 | COc1ccccc1C(=O)N[C@H]1CN(C)C[C@H]1C(=O)Nc1cccc(S(=O)(=O)C(F)(F)F)c1 (racemic) | inactive | 3.5 | 173 µL/min/mg | 0.98 10^3uL/min/mg |  |  |  |  |  |  | 
3 | COc1cc(F)c(-c2cccc(C(=O)O)c2)cc1C(=O)N[C@H]1[C@@H](C(=O)Nc2cccc(S(=O)(=O)C(F)(F)F)c2)[C@@H]2C=C[C@H]1C2 |  | 3.7 | < 3 µL/min/mg | < 64 µL/min/mg | 5.4 µL/min/1e6 cells | 277 µL/min | 158 nM | 103% |  |  | 
4 | COc1cc(F)c(-c2ccc(C(=O)O)cc2)cc1C(=O)N[C@H]1[C@@H](C(=O)Nc2cccc(S(=O)(=O)C(F)(F)F)c2)[C@@H]2C=C[C@H]1C2 |  |  |  | 100 µL/min/mg | 11.7 µL/min/1e6 cells | 334 µL/min | 158 nM |  | 3.8 | 7.2 µL/min/mg | 
5 | COc1cc(F)c(-c2ccc(C(=O)O)cc2)cc1C(=O)N[C@@H]1[C@H]2CC[C@H](C2)[C@@H]1C(=O)Nc1cccc(S(=O)(=O)C(F)(F)F)c1 |  | 3.6 | 16 µL/min/mg | 314 µL/min/mg | 32 µL/min/1e6 cells | 1.3 10^3uL/min | 158 nM | 103% |  |  | 
6 | COc1cc(F)c(-c2ccc(CC(=O)O)cc2)cc1C(=O)N[C@H]1[C@@H](C(=O)Nc2cccc(S(=O)(=O)C(F)(F)F)c2)[C@@H]2C=C[C@H]1C2 (racemic) |  | 3.2 | 4.6 µL/min/mg | 111 µL/min/mg | 6.5 µL/min/1e6 cells | 295 µL/min | 79.4 nM | 110% |  |  | 
7 | COc1ccccc1C(=O)Nc1ccccc1C(=O)Nc1cccc(S(=O)(=O)C(F)(F)F)c1 |  | > 4 | 12 µL/min/mg | 3.7 10^3uL/min/mg | 6.7 µL/min/1e6 cells | 0.96 10^3uL/min | 3160 nM | 153% |  |  | 

Results, then the molecule that gave them:

Row | Activity [1] | logD at 3 h [2] | microsomal CLint at 1 µM [3] | CL free [4] | hepatocyte CLint at 1 µM [5] | CL free [6] | EC50 (Relaxin receptor 1) | Emax ([7]; filed as agonist) | logD ([2]; octanol/water, pH 7.4, 3 h, 3 h) | CLH ([3]; microsomes, 0.5 h, 1 µM) | Emax [7] | SMILES
8 |  | > 3.9 | < 3 µL/min/mg | < 333 µL/min/mg | 11 µL/min/1e6 cells | 3.9 10^3uL/min | 200 nM | 115% |  |  |  | COc1cc(F)c(-c2ccc(C(=O)O)cc2)cc1C(=O)Nc1ccccc1C(=O)Nc1cccc(S(=O)(=O)C(F)(F)F)c1
9 |  | 4.4 | 44 µL/min/mg | > 29 10^3uL/min/mg | 8.9 µL/min/1e6 cells | 1.8 10^3uL/min | 2510 nM | 108% |  |  |  | COc1ccccc1C(=O)N[C@H]1[C@@H](C(=O)Nc2cccc(S(=O)(=O)C(F)(F)F)c2)[C@@H]2C=C[C@H]1C2
10 |  | 3.5 | 140 µL/min/mg | 0.35 10^3uL/min/mg |  |  | > 50100 nM |  |  |  | 37% | COc1ccccc1C(=O)N[C@H]1[C@@H](C(=O)Nc2cccc(S(=O)(=O)C(F)(F)F)c2)[C@H]2C=C[C@@H]1C2 (racemic)
11 | inactive | 4.4 | 242 µL/min/mg | 6.3 10^3uL/min/mg |  |  |  |  |  |  |  | COc1ccccc1C(=O)N[C@@H]1CCCC[C@@H]1C(=O)Nc1cccc(S(=O)(=O)C(F)(F)F)c1 (racemic)
12 |  | > 3.7 | 74 µL/min/mg | 92000 µL/min/mg | 18 µL/min/1e6 cells | 7.8 10^3uL/min | 251 nM | 109% |  |  |  | COc1cc(F)c(-c2ccc(S(N)(=O)=O)cc2)cc1C(=O)N[C@@H]1[C@H]2CC[C@H](C2)[C@@H]1C(=O)Nc1cccc(S(=O)(=O)C(F)(F)F)c1
